Tested on: rat aorta
Assay: inhibition of calcium-induced contraction (change in tension) of spirally cut strips of rat aorta in K+ 45 mM saline
Type: cell-based
Details: 0.75 h, 45 millimolar potassium, 2 millimolar calcium, 45 minutes, read-out: IC50 (molar concentration required to reduce the response by 50%)
Experimental: The ability of the compounds to inhibit the movement of calcium into the cell is shown by their effectiveness in reducing the response of isolated heart tissue to an increase in calcium ion concentration in vitro. The test is performed by mounting spirally cut strips of rat aorta with one end fixed and the other attached to a force transducer. The tissue is immersed in a bath of physiological saline solution containing potassium ions at a concentration of 45 millimolar and no calcium. Calcium chloride is added to the bath with a pipette to give a final calcium ion concentration of 2 millimolar. The change in tension caused by the resulting contraction of the tissue is noted. The bath is drained and replaced with fresh saline solution and, after 45 minutes, the test is repeated with the particular compound under test present in the saline solution. The concentration of compound required to reduce the response by 50% (IC50) is recorded.
The molar concentrations of the compounds required to reduce the response by 50% in the test specified on pages 16-17 are given below (1M=1 gm.Mole/liter).

IC50 [nM]	SMILES
0.501	CCOC(=O)C1=C(COCCNc2cnccn2)NC(C)=C(C(=O)OC)C1c1cccc(Cl)c1Cl (stereo not drawn) [Example 89, 4-(2,3-Dichlorophenyl)-3-ethoxycarbonyl-5-methoxycarbonyl-6-methyl-2-[2-(pyrazin-2-ylamino)ethoxymethyl]-1,4-dihydropyridine]
3.72	CCOC(=O)C1=C(COCCNc2nccc(=O)[nH]2)NC(C)=C(C(=O)OC)C1c1cccc(C(F)(F)F)c1Cl (stereo not drawn) [Example 59]
5.37	CCOC(=O)C1=C(COCCNc2nc(C(=O)NC)cs2)NC(C)=C(C(=O)OC)C1c1ccccc1Cl (stereo not drawn) [Example 77, 4-(2-Chlorophenyl)-3-ethoxycarbonyl-5-methoxycarbonyl-6-methyl-2-[2-(4-[N-methylcarbamoyl]-thiazol-2-ylamino)ethoxymethyl]-1,4-dihydropyridine]
39.8	CCOC(=O)C1=C(COCCNc2nc(C)cs2)NC(C)=C(C(=O)OC)C1c1ccccc1Cl (stereo not drawn) [Example 72]
1	CCOC(=O)C1=C(COCCNc2ncc(O)c(C)n2)NC(C)=C(C(=O)OC)C1c1cccc(Cl)c1Cl (stereo not drawn) [Example 91A, 4-(2,3-dichlorophenyl)-3-ethoxycarbonyl-2-[2-(5-hydroxy-4-methylpyrimidin-2-ylamino)ethoxymethyl]-5-methoxycarbonyl-6-methyl-1,4-dihydropyridine]
6.02	CCOC(=O)C1=C(COCCNc2cncc(Cl)n2)NC(C)=C(C(=O)OC)C1c1cccc(Cl)c1Cl (stereo not drawn) [Example 52]
2.5	CCOC(=O)C1=C(COCCNc2nc(C(C)=O)c[nH]2)NC(C)=C(C(=O)OC)C1c1cccc(Cl)c1Cl (stereo not drawn) [Example 91B, 2-[2-(4-acetylimidazol-2-ylamino)ethoxymethyl]-4-(2,3-dichlorophenyl)-3-ethoxycarbonyl-5-methoxycarbonyl-6-methyl-1,4-dihydropyridine]
18.1	CCOC(=O)C1=C(COCCNc2nccc(C(N)=O)n2)NC(C)=C(C(=O)OC)C1c1ccccc1Cl (stereo not drawn) [Example 29]
6.3	CCOC(=O)C1=C(COCCNc2ccnc(N)n2)NC(C)=C(C(=O)OC)C1c1ccccc1Cl (stereo not drawn) [Example 13]
426	CCOC(=O)C1=C(COCCNc2nc(N)nc(N)n2)NC(C)=C(C(=O)OC)C1c1ccccc1Cl (stereo not drawn) [Example 11]
10.5	CCOC(=O)C1=C(COCCNc2nccc(=O)[nH]2)NC(C)=C(C(=O)OC)C1c1ccccc1Cl (stereo not drawn) [Example 8, 4-(2-Chlorophenyl)-3-ethoxycarbonyl-5-methoxycarbonyl-6-methyl-2-[2-(3,4-dihydro-4-oxo-pyrimidin-2-ylamino)ethoxymethyl]-1,4-dihydropyridine]
31.6	CCOC(=O)C1=C(COCCNc2ccnc(Cl)n2)NC(C)=C(C(=O)OC)C1c1ccccc1Cl (stereo not drawn) [Example 18]
50.1	CCOC(=O)C1=C(COCCNc2cc(=O)n(C)c(=O)n2C)NC(C)=C(C(=O)OC)C1c1ccccc1Cl (stereo not drawn) [Example 15]
3.47	CCOC(=O)C1=C(COCCNc2noc(N)n2)NC(C)=C(C(=O)OC)C1c1cccc(C(F)(F)F)c1Cl (stereo not drawn) [Example 7]
3.16	CCOC(=O)C1=C(COCCNc2cc(NC)ncn2)NC(C)=C(C(=O)OC)C1c1cccc(Cl)c1Cl (stereo not drawn) [Example 83]
2.29	CCOC(=O)C1=C(COCCNc2nc(N)n[nH]2)NC(C)=C(C(=O)OC)C1c1cccc(C(F)(F)F)c1Cl (stereo not drawn) [Example 2, 2-[2-(3-Amino-1H-1,2,4-triazol-5-ylamino)ethoxymethyl]-4-(2-chloro-3-trifluoromethylphenyl)-3-ethoxycarbonyl-5-methoxycarbonyl-6-methyl-1,4-dihydropyridine]
1.25	CCOC(=O)C1=C(COCCNc2ccc(S(=O)(=O)N(C)C)cn2)NC(C)=C(C(=O)OC)C1c1cccc(Cl)c1Cl (stereo not drawn) [Example 47]
10	CCOC(=O)C1=C(COCCNc2n[s+]([O-])nc2OC)NC(C)=C(C(=O)OC)C1c1cccc(Cl)c1Cl (stereo not drawn) [Example 64, 3-{2-[(4-{2,3-Dichlorophenyl}-3-ethoxycarbonyl-5-methoxycarbonyl-6-methyl-1,4-dihydropyrid-2-yl)methoxy]ethylamino}-4-methoxy-1,2,5-thiadiazole-1-oxid]

From patent US4572908A, “Dihydropyridines” (Pfizer Inc., priority 1982, dated 1986)
